One series has as its system memory. Kind of series: Side effects concerning memory functions, T-shaped maze in conscious rats. To be noted: for Effect on memory: naive rats. Format: in vivo. The method, then: . Side effects concerning memory functions. Methods:
Conscious rats are used. The animals are placed at the base of a T-shaped maze with a reward placed in one of the arms of the maze. After the animals have learned where the reward is located, said reward is removed and it is investigated how long time it takes in the maze before the rats no longer selected the arm of the maze where the reward had been located. Experiments were also performed in rats that had been pretreated with phenylephrine to increase the permeability of the blood-brain barrier. Control groups of animals were treated with placebo (vehicle only) or with oxybutynin.

Series [1] concerns carbachol-induced contractions of urinary bladder smooth muscle strips. In words: Antimuscarinic activity on bladder smooth muscle strips (carbachol-induced contractions). It is filed as cell-based, guinea pigs. The following applies: Cavia porcellus, read-out: KB for inhibition of carbachol-induced contractions. From the text: Conclusions: Trospium had slightly higher affinity for human muscarinic receptors than the reference compounds. The therapeutic activity of anti-muscarinic drugs in overactive human bladders are usually considered to be related to affinity for M-2/M-3 receptors, while the side effect xerostomia (dry mouth) is due mainly, but not exclusively, to inhibition of M-1 receptors in salivary glands. • 2. Functional Characterization of Antimuscarinic and Antispasmodic Activities on Bladder Smooth Muscle Strips. Methods: Experiments have now been performed using methods described by Kachur et al, J Pharmacol Exp Ther. 1988, 247: 867-872 and Noronha-Blob et al. J Pharmacol Exp Ther 256: 562-567. Strips of tissue (approximately 10 mm long and 1.5 mm wide) were removed from the urinary bladder of male guinea pigs. The tissues were suspended in an oxygenated buffer of the following composition, in mM: NaCl 133; KCl 4.7; CaCl2 2.5; MgSO4 0.6; NaH2PO4.1.3; NaHCO3 16.3; and glucose 7.7. The smooth muscle strips were maintained at or about 37.5° C. in tissue chambers and allowed to equilibrate with the bathing solution for one hour before proceeding with the experiment. […]

Setting [2] is: male guinea pig urinary bladder strips.

SMILES strings stand for the structures. Read-outs that look alike come from different tables or passages of the source.

Consider `O=C(OC1CC2CCC(C1)[N+]21CCCC1)C(O)(c1ccccc1)c1ccccc1` (centres unmarked) [Trospium, azoniaspiro (3[…]-benziloyl-oxynortro-pane-8,1′-pyrrolidine) chloride], for which, in the series with memory (T-shaped maze), the Effect on memory result is “does not influence the memory”. Moreover, the “Effect on memory after phenylephrine pretreatment” value with memory (rats pretreated with phenylephrine to increase blood-brain barrier permeability) was “did not uncover any impairment of memory”. For the same compound, in the series on memory (rats with memory disorder induced by oxybutynin, T-shaped maze), the “Aggravation of existing memory impairment” value is listed as “no further aggravation of memory impairment”. The Kb in series [1] is 1.5 to 5.5 nM.

Consider `CCN(CC)CC#CCOC(=O)C(O)(c1ccccc1)C1CCCCC1` (centres unmarked) [Oxybutynin], for which the Effect on memory entry with memory (T-shaped maze) is reported as “memory is impaired”. Besides, the Kb in series [1] (setting [2]) was in the range of 1.5 to 5.5 nM.

Take `CC(CC(c1ccccc1)c1ccccc1)NC(C)(C)C` (centres unmarked) [terodiline]: the Kb in series [1] (setting [2]) fell in the range of 1.5 to 5.5 nM.

For the compound `Cc1ccc(O)c([C@H](CCN(C(C)C)C(C)C)c2ccccc2)c1` [Tolterodine], the Kb in series [1] is 1.5 to 5.5 nM.

(Values after patent publication US7390816B2, “Methods for treating urinary incontinence in patients suffering from memory disorders” (Bridge Pharma, Inc., priority 2005, dated 2008).)
